In the assay the test system is FLS from PIA rats. The experiment in a line: FLS invasion assay (Matrigel-coated transwell). It counts as cell-based. Particulars: RTD-1 0.1 μg/ml; 24 h; 7 different rat DA FLS cell lines, mean. On the procedure:
Fibroblast-like synoviocytes (FLS) were isolated by enzymatic digestion of the synovial tissue from DA rats with PIA as previously described. Cells were washed and suspended in DMEM supplemented with 10% fetal bovine serum (Gibco, Grand Island, NY), 30 mg/ml L-glutamine (Sigma), 250 μg/ml amphotericin B (Sigma), and […] gentamicin (Gibco). After overnight culture, non-adherent cells were removed and adherent cells were cultured to approximately 70–90% confluence and passaged following detachment with 0.25% trypsin-EDTA for 3 min at 37°C. All experiments were performed with FLS after at least four passages.
FLS invasiveness was assayed in vitro using Matrigel-coated inserts in a transwell system (Becton, Dickinson and Company, Franklin Lakes, NJ) as previously described. Briefly, DA rat FLS (70–80% confluent) isolated as described above were suspended at 2.0 × 10^4 cells/well in serum-free DMEM. Cells were placed in the upper compartment of the Matrigel-coated inserts to which RTD-1 was added to final concentrations of 0.1, 1, or 10 μg/ml. The lower compartment contained complete medium with 10% FBS and plates were incubated at 37°C. […] The opposite side of the insert was stained with Crystal Violet (Sigma) and the total number of invading cells was counted at 100X magnification. […]

SMILES strings stand for the structures. Bridge positions count the residues as written; N and C are the ends. Peptide text beside a SMILES is read from it.

Regarding `CC[C@H](C)[C@@H]1NC(=O)[C@@H]2CSSC[C@H](NC(=O)[C@H](CCCNC(=N)N)NC(=O)[C@@H]3CSSC[C@H](NC1=O)C(=O)N[C@@H]([C@@H](C)O)C(=O)N[C@@H](CCCNC(=N)N)C(=O)NCC(=O)N[C@@H](Cc1ccccc1)C(=O)N3)C(=O)N[C@@H](CC(C)C)C(=O)N[C@H]1CSSC[C@H](NC(=O)[C@H](C(C)C)NC(=O)CNC(=O)[C@H](CCCNC(=N)N)NC(=O)[C@H](CCCNC(=N)N)NC1=O)C(=O)N[C@@H](CCCNC(=N)N)C(=O)N2` [RTD-1, rhesus θ-defensin 1] (cyclo(GFCRCLCRRGVCRCICTR); disulfide 3-16, 5-14, 7-12), the “inhibition of FLS invasion” value worked out at 50%.

Source of the values: paper PMC5690597, “Suppression and resolution of autoimmune arthritis by rhesus θ-defensin-1, an immunomodulatory macrocyclic peptide” (PLoS ONE, 2017).
